Measurements taken from US10561638B2, “Methods for treating dependence” (Biotie Therapies, Inc., priority 2007, dated 2020).
Entries after “also recorded” stand apart in the source; their conditions may differ.

Legend:
anesthetized beagle dogs = experiment: Sympathetically-evoked responses in dogs after 4.5 days dosing; assay type: in vivo; conditions: 10 mg/kg/d for 4.5 days
[1] = test system: plasma dopamine/norepinephrine ratio, urinary dopamine; experiment: Plasma and urinary catecholamines in normal volunteers; assay type: in vivo, human
Protocol: Nepicastat reduces the conversion of dopamine to norepinephrine. Basic tests for nepicastat activity measure the levels of plasma or urinary dopamine or the ratio of dopamine to norepinephrine. Nepicastat treatment can increase plasma or urinary levels of dopamine or increase the dopamine/norepinephrine ratio in plasma or urine.
Shown in FIG. 5, are the levels in urinary dopamine levels in normal volunteers after 24 hour treatment with nepicastat.
Urinary dopamine levels increased after 10 days of dosing with both 40 mg and 200 mg of nepicastat.

plasma renin activity = experiment: Plasma renin activity in SHRs; assay type: in vivo, spontaneously hypertensive rats; conditions: 30 and 100 mg/kg/d p.o. for 5 days
Excerpt: The potency relationships in the left ventricle and mesenteric artery resulting from these in vivo studies strongly parallel those obtained from in vitro studies using purified DBH (see above). […] It was therefore of interest to assess whether decreasing norepinephrine levels with nepicastat would result in a decrease in plasma renin activity.

[2] = test system: normotensive Wistar-Kyoto rats; experiment: Blood pressure in conscious, restrained Wistar-Kyoto rats; assay type: in vivo; conditions: 10 mg/kg
Excerpt: To summarize together, nepicastat causes a decrease in blood pressure in both SHRs and normotensive rats, though the antihypertensive effect is more pronounced in SHRs.

thyroid uptake of 123I = experiment: Thyroid uptake of 123I in humans; assay type: in vivo, human
[3] = test system: tissue norepinephrine and dopamine levels; experiment: Tissue catecholamines in Sprague-Dawley rats after single oral dose; assay type: in vivo
Protocol: In SHRs there were significant changes in the dopamine/norepinephrine ratio in the mesenteric artery at doses of 0.3 mg/kg, in the left ventricle at 3.0 mg/kg, and in the cerebral cortex at 10 mg/kg. […] In a second dose-response study in SHRs, three doses were administered 12 hours apart at either 3.0, 10, 30, or 100 mg/kg, and tissue was harvested six hours after the third dose. Nepicastat caused a significant dose dependent decrease in norepinephrine (10 mg/kg) and increase in dopamine (3.0 mg/kg) and the dopamine/norepinephrine ratio (3.0 mg/kg) in the left ventricle and mesenteric artery. The effects of nepicastat on dopamine and norepinephrine concentrations, and the dopamine/norepinephrine ratio in the cerebral cortex were significant only at 30 and 100 mg/kg.

[4] = test system: MPTP-lesioned squirrel monkey; experiment: MPTP-lesioned squirrel monkey Parkinsonian model; assay type: in vivo, squirrel monkeys
Protocol: Twenty four squirrel monkeys, fourteen females and ten males were used in a Parkinsonian model. The twenty-four animals were randomly assigned to one of four treatment groups, with 6 animals per group. The groups consisted of the following: Group A (6 animals) received placebo (water) treatment; Group B (5 animals) received drug nepicastat at 1 mg/kg/day (0.5 mg/kg twice daily); Group C (6 animals) received 4 mg/kg/day (2 mg/kg twice daily); and Group D (6 animals) received 10 mg/kg/day (5 mg/kg twice daily). In Group B, one animal died acutely following MPTP-lesioning, and was not replaced.
Prior to lesioning, animals were subjected to quantitative assessment of spontaneous motor activity using an infrared activity monitor (IRAM) cage. All recording sessions were 60 minutes in length and were carried out for 10 sessions over a period of 2 weeks. The behavior of animals was also assessed by 1 to 3 clinical raters using a parkinsonian clinical rating scale (CRS) once per day (12 noon to 1 pm) for 3 to 5 consecutive days. […] Both the activity monitoring (IRAM) and clinical rating assessments established the mean base-line activity of each animal.
Animals were lesioned by the administration of MPTP at a concentration of 2.0 mg/kg (free-base) via subcutaneous injection to achieve a parkinsonian state. A post-MPTP lesioning behavioral assessment was carried out 2 to 4 weeks after the last MPTP-lesioning. Locomotor activity was monitored by IRAM in 60-minute sessions for 3 to 5 days. Clinical behavior (CAS) was assessed by one to three individuals rating over a period of 3 to 5 days.
Animals were tested for response to L-Dopa and the efficacy of drug nepicastat. Testing was carried out 4 to 12 weeks after the last MPTP dose. L-Dopa was administered at a concentration of either 2.5, 5, or 7.5 mg/kg by oral gavage twice daily (at 10 am and 2 pm) for 7 consecutive days. Behavior was determined by IRAM and CRS. Clinical rating was carried out 60 to 90 minutes following the 10 am morning dose on the last 4 days of treatment. Raters (one to three individuals) were blinded to the different treatment groups. IRAM assessment were preformed for 90 minutes immediately following drug administration at 2 pm on the last 2 to 5 days of drug treatment. There was a minimum 2 day washout period between each treatment dose.
Nepicastat or water (as placebo) was administered for 12 days following a minimum 2 day washout after L-Dopa dosing. Drug was administered twice daily at 10 am and 2 pm by oral gavage. Behavior was rated by IRAM and CRS. The CRS was conducted in the morning, 60 to 90 minutes after the 10 am dose of nepicastat on the last 5 days of drug treatment. Raters (one to three individuals) were blinded to the different treatment groups. IRAM assessments were preformed for 90 minutes immediately following drug administration at 2 pm on the last 5 days of drug treatment.
Eight parkinsonian features were rated in each animal and the total score was derived from the sum of these eight features. For each animal, a single clinical rating score was obtained for each drug dose by averaging the clinical rating scores of all raters (one to three) conducted over the consecutive multiple dosing (with the same dose) days. This average CRS was used for statistical analysis. A lower score was considered a less parkinsonian behavioral state.
Statistical analysis consisted of: (1) comparisons between the average CRS of placebo to nepicastat at 1, 4, and 10 mg/kg/day using the Kruskal-Wallis (non-parametric analysis of variance). This comparison was repeated using the average CRS for each experimental drug concentration corrected by the final post-MPTP ratings for each animal. The corrected clinical scores are clinical scores of experimental drug at each concentration as a ratio of post-MPTP clinical scores. […]

normal dogs = experiment: Cardiovascular effects of i.v. dosing in dogs; assay type: in vivo; conditions: anesthetized dogs, 1-10 mg/kg i.v., up to five hours

## Cl.NCc1c[nH]c(=S)n1[C@H]1CCc2c(F)cc(F)cc2C1 [nepicastat, (S)-5-Aminomethyl-1-(5,7-difluoro-1,2,3,4-tetrahydronaphth-2-yl)-2,3-dihydro-2-thioxo-1H-imidazole hydrochloride]
Anesthetized beagle dogs
  blood pressure and heart rate increases in response to carotid artery occlusion: no statistically significant decrease
  blood pressure response to i.v. tyramine challenge: only slight and non-significant inhibition
  heart rate response to i.v. tyramine challenge: significantly reduced the increase in heart rate
[1]; 40 mg and 200 mg, after 10 days of dosing
  urinary dopamine levels: increased
[1]; 200 mg
  mean supine plasma dopamine/norepinephrine ratio vs placebo: significant increase
Plasma renin activity
  plasma renin activity: did not alter plasma renin activity
[2]
  decrease in blood pressure 4 hours after dosing: −13 mmHg
Thyroid uptake of 123I; 5, 40 and 100 mg
  thyroid uptake of 123I vs placebo: no differences from placebo
Thyroid uptake of 123I; single 200 mg dose
  reduction of thyroid uptake of 123I vs placebo: significantly greater than placebo
[3]; cerebral cortex, only at this dose
  dose with significant increase in dopamine/norepinephrine ratio: 100 mg/kg
[3]; left ventricle, 6 h after single oral dose
  dose with significant increase in dopamine/norepinephrine ratio: 1.0 mg/kg
[3]; mesenteric artery, 6 h after single oral dose
  dose with significant increase in dopamine/norepinephrine ratio: 3.0 mg/kg
[4]; 1 mg/kg/day
  activity monitoring (IRAM) vs placebo: slower than placebo treatment
[4]; 1, 4, 10 mg/kg/day, 12 days, hydrochloride
  parkinsonian clinical rating vs placebo: no detectable differences; also recorded: no significant effect in parkinsonian symptoms compared to placebo
[4]; 4 and 10 mg/kg/day
  activity monitoring (IRAM) vs placebo: no difference
[4]; nepicastat 4 and 10 mg/kg/day, hydrochloride
  parkinsonian clinical rating vs post-MPTP (pre-treatment) state: significant improvement over the post-MPTP (pre-treatment) state; also recorded: significant effect in parkinsonian symptoms compared to post-MPTP lesioning
Normal dogs
  cardiovascular effects: no cardiovascular effects
